Results published in patent publication US20240368183A1, “Macrocyclic Compounds Having ENT1 Inhibiting Activity” (iTeos Belgium SA, priority 2021, published 2024).
Like-named read-outs stand apart in the source and are kept apart here.

Key:
[1] = tested on: stimulated primary human T cells; experiment: T cell proliferation assay (rescue of proliferation in the presence of ATP); format: cell-based
Method: The aim of this study was to determine the potency of equilibrative nucleoside transporter 1 (ENT1) inhibitors to rescue proliferation by stimulated primary human T cells incubated in the presence of 100 uM Adenosine triphosphate (ATP), in baseline conditions (condition A) or in the presence of various proteins known to bind small molecules (condition B)
Condition B: X-VIVO15, 2% Human Serum Albumine (HSA) and 0.1% α-1-Acid Glycoprotein (AAG)
Cryopreserved purified human CD3+ T cells were thawed and washed twice with RPMI1640 medium, UltraGlutamine containing 10% hiFBS.
Cells were suspended in PBS containing 10% hiFBS. Cells were stained with CFSE by adding 2 μM solution in PBS, to get a final 1 μM CFSE solution. Cells were incubated while rotating for 5 minutes. Reaction was stopped by adding PBS with 10% FBS and cells were centrifuged for 5 minutes at 1500 rpm.
Cells were resuspended at 1.6×10^6 cells/mL, either in X-VIVO15 medium or in 4% Human Serum Albumin and 0.2% α-1-Acid Glycoprotein. 50 μL of cell suspension (8×10^4 T cells) was added to wells of sterile round-bottom 96-well plates. Cells were activated by adding 50 μL of anti-CD3 anti-CD28 coated microbeads, suspended either in XVIVO-15 medium or in 4% HSA and 0.2% α-1-Acid Glycoprotein, at a ratio of one microbead per two cells.
Serial dilutions of the ENT1 inhibitors were prepared in X-VIVO15 from 10 mM stock solutions in DMSO, and 50 μL was added to the wells.
ATP powder was diluted in X-VIVO15, and 50 μL of this compound was added to the wells to reach a final assay concentration of 100 μM. Final volume of 200 μL.
The experiments were also performed in 384 well plates—all volumes reduced by a factor of 4 (12.5 μL) with a final volume of 50 μL.
Experiments were performed in duplicate. The cells were placed in a 37° C. humidified tissue culture incubator with 5% CO2 for 72 hours for 96 well plates, 96 hours for 384 well plates After 72 or 96 hours, proliferation was measured determined by CFSE dilution via flow cytometry.

[2] = target: T1, human ENT1 (Homo sapiens, UniProt Q99808); experiment: ENT1 binding assay (competition with Sahenta-DY647); details: JAR cells expressing ENT1; competition with Sahenta-DY647 (100 nM); 4° C.
T1 construct: JAR cells expressing ENT1 were bought from ATCC® (HTB-144TM); host or cells: JAR cells (human choriocarcinoma line, own knowledge)
T1 sequence (Q99808 1-456): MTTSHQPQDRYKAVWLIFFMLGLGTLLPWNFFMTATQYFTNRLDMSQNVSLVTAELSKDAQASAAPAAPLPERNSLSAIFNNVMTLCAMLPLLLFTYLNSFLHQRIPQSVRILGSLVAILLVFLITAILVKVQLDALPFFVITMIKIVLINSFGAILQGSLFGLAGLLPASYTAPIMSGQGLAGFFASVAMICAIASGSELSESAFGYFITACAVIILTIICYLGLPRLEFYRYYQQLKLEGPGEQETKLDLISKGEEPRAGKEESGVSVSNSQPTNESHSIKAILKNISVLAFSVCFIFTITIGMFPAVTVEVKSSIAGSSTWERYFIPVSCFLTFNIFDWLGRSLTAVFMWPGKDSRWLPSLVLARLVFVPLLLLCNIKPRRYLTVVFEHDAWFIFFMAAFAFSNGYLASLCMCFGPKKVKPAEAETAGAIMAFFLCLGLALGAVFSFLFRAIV
Method: The present assay aims at showing that the compounds of the present disclosure can bind to human ENT1. The principle of the assay is a competition between the compounds of this present disclosure and Sahenta-DY647, an ENT1 inhibitor that emits fluorescence (Ex=630 nm, Em=670 nm). By measuring the fluorescence at the end of the assay we could assess the binding potency of the compounds of the present disclosure.
JAR cells expressing ENT1 were bought from ATCC® (HTB-144TM). Cells were cultured in RPMI 1640 medium (LONZA®, #BE12-702F/U1) supplemented with 10% FBS (GIBCO®, #10270-106), 10 mM Hepes (LONZA®, #BE17-737E), 1 mM Sodium Pyruvate (LONZA®, #BE13-115E) and 2% Penicillin/Streptomycin (LONZA®, #DE17-603E) at 37° C. and 5% CO2. The assay was conducted on the following buffer: HBSS (LONZA®, #LO-527F) supplemented with 10 mM Hepes (LONZA®, #BE17-737E) and 0.1% BSA (Miltenyi®, #130-091-376) on the day of the assay.
JAR cells were resuspended in the described buffer. Compounds of the present disclosure and Sahenta-DY647 were diluted 200× in the described buffer.
A total of 50 000 cells were pre-incubated for 30 min at 4° C. with the compounds of the present disclosure before adding the corresponded IC90 of Sahenta-DY647 (100 nM) and incubate once more for 30 min at 4° C. The total volume of the reaction was 100 μL (50 μL of cells, 25 μL of the compounds of the present disclosure and 25 μL of Sahenta-DY647) in a 96 well plate, U-bottom (Greiner®, #650-180). The plates were washed 2× by centrifugation (4 min, 400 rcf at 4° C.) in the same buffer. Cells were re-suspended in 70 μL of the buffer and 50 μL was transferred to a Black 384 Optiplate (PerkinElmer®, #6007279). Fluorescence (Ex=630 nm, Em=670 nm) was acquired on a Spectramax i3x (Molecular Devices®).

[3] = Condition B: X-VIVO15, 2% Human Serum Albumine (HSA) and 0.1% α-1-Acid Glycoprotein (AAG), 100 μM ATP, read-out: (2) T Cell proliferation (Condition B) IC50
[4] = Homo sapiens, Condition A: X-VIVO15, 100 μM ATP, read-out: T Cell proliferation (Condition A) IC50

SMILES | IC50 [1, 3] | IC50 [1, 4] | IC50 [2]
COc1cc(C(=O)OC2CCCOc3cc(cc(OC)c3OC)COCCCN3CCCN(CC2)CC3)cc(OC)c1OC (racemic) [Compound 3] | < 1 nM | < 0.1 nM | < 1 nM
COc1cc(C(=O)O[C@@H]2CCCOc3cc(cc(OC)c3OC)COCCCN3CCCN(CC2)CC3)cc(OC)c1OC (single isomer, unassigned) [Compound 4] | < 1 nM | < 0.1 nM | 1 to 20 nM
COc1cc(C(=O)O[C@H]2CCCOc3cc(cc(OC)c3OC)COCCCN3CCCN(CC2)CC3)cc(OC)c1OC (single isomer, unassigned) [Compound 5] |  |  | 20 to 500 nM
COc1cc(C(=O)O[C@H]2CCOc3cc(cc(OC)c3OC)C(=O)NCCCN3CCCN(CC2)CC3)cc(OC)c1OC (stereo in doubt) [Compound 38] |  |  | 500 to 1000 nM
COc1cc2cc(c1OC)OCCCC(O/N=C/c1ccccc1)CCN1CCCN(CCCOC2)CC1 (stereo not drawn) [Compound 1] |  |  | 20 to 500 nM
COc1cc2cc(c1OC)OCCCC(OC(=O)c1ccccc1)CCN1CCCN(CCCOC2)CC1 (stereo not drawn) [Compound 2] | > 500 nM | 1 to 20 nM | 1 to 20 nM
COc1cc2cc(c1OC)OCCCC(OC(=O)CCC(=O)N1CCOCC1)CCN1CCCN(CCCOC2)CC1 (stereo not drawn) [Compound 6] | > 500 nM | < 1 nM | 1 to 20 nM
COc1cc2cc(c1OC)OCCCC(OC(=O)c1cnnn1C)CCN1CCCN(CCCOC2=O)CC1 (stereo not drawn) [Compound 7] |  |  | 1 to 20 nM
COc1cc2cc(c1OC)OCCCC(OC(=O)c1cn(C)nn1)CCN1CCCN(CCCOC2=O)CC1 (stereo not drawn) [Compound 8] |  |  | 1 to 20 nM
COc1cc2cc(c1OC)OCCCC(OC(=O)c1cnn(C)c1)CCN1CCCN(CCCOC2=O)CC1 (stereo not drawn) [Compound 9] | 1 to 20 nM | < 0.1 nM | 1 to 20 nM
COc1cc2cc(c1OC)OCCCC(OC(=O)c1ccnn1C)CCN1CCCN(CCCOC2=O)CC1 (stereo not drawn) [Compound 10] | 20 to 500 nM | < 0.1 nM | 1 to 20 nM
COc1cc2cc(c1OC)OCCCC(OC(=O)c1ccn(C)n1)CCN1CCCN(CCCOC2=O)CC1 (stereo not drawn) [Compound 11] | > 500 nM | < 1 nM | 1 to 20 nM
COc1cc2cc(c1OC)OCCCC(OC(=O)c1cc(C)nn1C)CCN1CCCN(CCCOC2=O)CC1 (stereo not drawn) [Compound 12] | 1 to 20 nM | < 1 nM | 1 to 20 nM
COc1ccc(C(=O)OC2CCCOc3cc(cc(OC)c3OC)C(=O)OCCCN3CCCN(CC2)CC3)cc1 (stereo not drawn) [Compound 13] |  |  | 1 to 20 nM
COc1cccc(C(=O)OC2CCCOc3cc(cc(OC)c3OC)C(=O)OCCCN3CCCN(CC2)CC3)c1 (stereo not drawn) [Compound 14] |  |  | 1 to 20 nM
COc1cc(OC)cc(C(=O)OC2CCCOc3cc(cc(OC)c3OC)C(=O)OCCCN3CCCN(CC2)CC3)c1 (stereo not drawn) [Compound 15] | 1 to 20 nM | < 1 nM | 1 to 20 nM
COc1ccc(C(=O)OC2CCCOc3cc(cc(OC)c3OC)C(=O)OCCCN3CCCN(CC2)CC3)cc1OC (stereo not drawn) [Compound 16] | 1 to 20 nM | < 0.1 nM | 1 to 20 nM

SMILES | IC50 [1, 3] | IC50 [1, 4] | IC50 [2]
[2H]C([2H])([2H])Oc1cc(C(=O)O[C@@H]2CCCOc3cc(cc(OC)c3OC)C(=O)NCCCN3CCCN(CC2)CC3)cc(OC([2H])([2H])[2H])c1OC([2H])([2H])[2H] [Compound 17] | 1 to 20 nM | < 0.1 nM | 1 to 20 nM
COc1cc(C(=O)OC2CCCOc3cc(cc(OC)c3OC)C(=O)NCCN3CCCN(CC2)CC3)cc(OC)c1OC (stereo not drawn) [Compound 19] | 20 to 500 nM | < 1 nM | 1 to 20 nM
COc1cc2cc(c1OC)OCCCC(OC(=O)CCC(=O)N1CCOCC1)CCN1CCCN(CCCNC2=O)CC1 (stereo not drawn) [Compound 20] | > 500 nM | 1 to 20 nM | 20 to 500 nM
COc1cc2cc(c1OC)OCCCC(Oc1ncccn1)CCN1CCCN(CCCOC2=O)CC1 (stereo not drawn) [Compound 22] |  |  | 20 to 500 nM
COc1cc2cc(c1OC)OCCCC(Oc1ccn(C)n1)CCN1CCCN(CCCOC2=O)CC1 (stereo not drawn) [Compound 25] |  |  | 500 to 1000 nM
COc1cc2cc(c1OC)OCCCC(OC(=O)N1CCOCC1)CCN1CCCN(CCCOC2=O)CC1 (stereo not drawn) [Compound 26] |  |  | 1 to 20 nM
COc1cc2cc(c1OC)OCCCC(OC(=O)N1CCCCC1)CCN1CCCN(CCCOC2=O)CC1 (stereo not drawn) [Compound 27] |  |  | 1 to 20 nM
COc1cc(C(=O)OC2CCCOc3cc(cc(OC)c3OC)C(=O)NCCC(=O)N3CCN(CC2)CC3)cc(OC)c1OC (stereo not drawn) [Compound 31] |  |  | 20 to 500 nM
COc1cc2cc(c1OC)OCCCCCCN1CCCN(CCCOC2=O)CC1 [Compound 32] |  |  | 500 to 1000 nM
Cn1nnc2cc(C(=O)OC3CCCOc4cc(cc(Cl)c4Cl)C(=O)NCCCN4CCCN(CC3)CC4)ccc21 (stereo not drawn) [Compound 34] |  |  | 500 to 1000 nM
COc1cc2cc(c1OC)OCCCC(OCc1ccccc1)CCN1CCCN(CCCOC2=O)CC1 (stereo not drawn) [Compound 35] |  |  | 500 to 1000 nM
COc1cc(C(=O)OC2CCCOc3cccc(c3)-c3cn(nn3)CCCN3CCCN(CC2)CC3)cc(OC)c1OC (stereo not drawn) [Compound 36] |  |  | 20 to 500 nM
COc1cc(C(=O)O[C@@H]2CCOc3cc(cc(OC)c3OC)C(=O)NCCCN3CCCN(CC2)CC3)cc(OC)c1OC [Compound 39] |  |  | 20 to 500 nM
COc1cc(C(=O)OC2CCCOc3cc(cc(OC)c3OC)CCCCCN3CCCN(CC2)CC3)cc(OC)c1OC (stereo not drawn) [Compound 45] |  |  | 1 to 20 nM
COc1cc(C(=O)OC2CCCOc3cc(cc(OC)c3OC)C#CCCS(=O)(=O)N3CCCN(CC2)CC3)cc(OC)c1OC (stereo not drawn) [Compound 46] |  |  | 20 to 500 nM
COc1cc(C(=O)OCCCN2CCCN(CCCOC(=O)c3cc(OC)c(OC)c(OC)c3)CC2)cc(OC)c1OC [Dilazep, dilazep, reference compound] | 20 to 500 nM | 1 to 20 nM | 
